Experimental data: patent US12152264B2, “Phosphinothricin dehydrogenase mutant, genetically engineered bacterium and one-pot multi-enzyme synchronous directed evolution method” (ZHEJIANG UNIVERSITY OF TECHNOLOGY, priority 2020, dated 2024)

Key:
[1] = target: Pseudomonas fluorescens phosphinothricin dehydrogenase (PPTDH, PfGluDH; WP_150701510.1) mutant A164G_R205K_T332A, SEQ ID No.1 (Pseudomonas azerbaijanoccidentalis, UniProt A0ABS6QXK2, A164G/R205K/T332A); format: biochemical; settings: A164G_R205K_T332A; pH 7.0, 40° C.
[2] = target: Pseudomonas fluorescens phosphinothricin dehydrogenase (PPTDH, PfGluDH; NCBI accession number WP_150701510.1), wild type (Pseudomonas azerbaijanoccidentalis, UniProt A0ABS6QXK2); test: Determination of kinetic parameters of wild-type phosphinothricin dehydrogenase (PPO reductive amination with NADPH); settings: pH 7.0, 40° C.

NC(=O)C1=CN([C@@H]2O[C@H](COP(=O)(O)OP(=O)(O)OC[C@H]3O[C@@H](n4cnc5c(N)ncnc54)[C@H](OP(=O)(O)O)[C@@H]3O)[C@@H](O)[C@H]2O)C=CC1 [NADPH]
kcat/Km^A (NADPH) [1]: 1.05761e+07 M⁻¹ s⁻¹ | kcat/Km^A (NADPH) [2]: 53360 M⁻¹ s⁻¹
